Results from patent US6342485B1, “Synergistic compositions useful as anti-tumor agents” (priority 1999, dated 2002).
Read-outs that look alike come from different tables or passages of the source.

Experiments:
[1] = test system: H630-10 human colorectal tumor cells; assay: MTT assay; format: cell-based; details: H630-10 cells, 24 h drug exposure
From the text: All culture media were supplemented with penicillin/streptomycin.

[2] = test system: H630 human colorectal tumor cells; assay: Clonogenic assay; format: cell-based; details: for IC50: Clonogenic assay, H630 cells, 72 h drug exposure
Protocol: (§1) About one thousand viable H630 or H630-10 cells suspended in 10 mL of RPMI 1640 medium with 9% NU serum IV were grown at 37° C. in a humidified 5% CO2-air atmosphere in 100×20 mm plastic petri dishes. After 48 h, the medium was removed, and replaced with 10 mL of fresh medium containing either 5-FU, FdUMP[10], or both 5-FU and FdUMP[10]. After 72 h, the medium containing drugs was removed and replaced by fresh medium. Plates were incubated for 2 to 3 weeks with fresh medium added, if necessary, after which the medium was removed, and the clones were identified by staining with 0.1% methylene blue in 70% ethanol aqueous solution. The number of surviving colonies was counted, and calculated as a percent of controls. Each study was repeated twice.

[3] = test system: H630-10 human colorectal tumor cells; assay: Clonogenic assay; format: cell-based; details: H630-10 cells, 72 h drug exposure
Protocol: as §1

H630 cells = assay: TUNEL assay for induction of apoptosis; format: cell-based, human; details: TUNEL staining, H630 cells exposed for 72 h, data not shown
Protocol: About one million H630 cells were seeded into each of the T-75 cell culture flasks. Two days later, after two doubling times, the cells were exposed to FdUMP[10]. The cells were exposed to FdUMP[10] for 72 h, and then fixed with 1% methanol-free formaldehyde for 20 min at 0° C. The fixed-cells were then placed in a 70% ethanol solution at −20° C. for two weeks. The ethanol was then removed, and the cells were washed with PBS and incubated with TdT buffer (Promega), containing equilibration buffer, nucleotide mixture and TdT enzyme, at 37° C. for 1 hour. The reaction was terminated by addition of EDTA solution and the incubation buffer was then removed. The cells were then treated with 0.1% Triton, followed by propidium iodide containing DNase-free RNAse. The cells were kept at room temperature for 30 min, and then analyzed by flow cytometry.

cells = assay: Preliminary rescue experiments on the mechanism of cytotoxicity; format: cell-based
[4] = test system: H630 human colorectal tumor cells
Protocol: (§2) The antiproliferative activities of FdUMP[10] and 5-FU for the human colorectal tumor cell lines H630 and H630-10 were compared using an assay for 3-(4,5-dimethylthiazol-2-yl)-2,5-diphenyltetrazolium bromide (MTT). H630 and H630-10 cells were cultured using RPMI 1640 containing L-glutamine and supplemented with 10% Nu-serum IV. All culture media were supplemented with penicillin/streptomycin. 25,000 cells were plated (96 well flute-bottom plate) in 200 μL of medium at 37° C. overnight in an air atmosphere containing 5% CO2. The medium was replaced the next day, and cells were exposed to the drugs for 24 h. The medium was then removed from the plates and replaced with 100 μL of fresh medium and 25 μL of MTT solution (5 μg/μL in PBS) per well. Following 2 h incubation, 100)L of MTT solvent (20% w/v SDS dissolved in DMF:H2O [1:1], pH 4.7) was added to each well and the plates were incubated overnight (Senderoff et al., 1990). The plates were analyzed the following morning on a Titerek Multiscan Plus 96-well plate analyzer (v.1.4). The number of viable cells in each well containing cells treated with drug was calculated from the absorbance at 570 nm compared to untreated controls. The means and standard deviation at each concentration for each drug were calculated using standard statistical methods. MTT assays were run in duplicate or triplicate to assure the statistical significance of the results.

[5] = test system: H630 human colorectal tumor cells; assay: cells; details: NCI-H630, 24 h
Protocol: as §2

[6] = cited from earlier work

FdUMP[10]
IC50 [1]: 99.5 nM
IC50 [2]: 250 nM
effect on the growth of H630 cells as single agent ([2]; FdUMP[10] alone at 4.0×10^−8 and 6.0×10^−8 M): no significant effect
IC50 [3]: 71 nM
cells undergoing apoptosis (H630 cells): ~100%
rescue of cells from FdUMP[10] by deoxythymidine (cells): does not rescue
reversal of the effects of FdUMP[10] by uridine (cells): partially reverse
efficiency of FdUMP[10] relative to 5-FU [4]: about 400 times
IC50 ([4]; MTT assay, H630 cells, 24 h drug exposure): 16.9 nM

O=c1[nH]cc(F)c(=O)[nH]1 [5-FU, 5-fluorouracil, reference compound]
IC50 ([1]; Homo sapiens): 27100 nM
IC50 ([2]; Homo sapiens, NCI-H630): 3900 nM
IC50 ([3]; Homo sapiens): 75000 nM
IC50 [5]: 4870 nM
half-life in-vivo [6]: about 18 minutes
